Assay results from the supplement of paper PMC6411743.

Legend:
guanosine triphosphate = compound: Nc1nc2c(ncn2[C@@H]2O[C@H](COP(=O)(O)OP(=O)(O)OP(=O)(O)O)[C@@H](O)[C@H]2O)c(=O)[nH]1 [guanosine triphosphate]; assay: pEC50 of GTP-induced change in protein thermal stability (2D-TPP)
Method: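 2D thermal proteome profiling in Jurkat crude lysate. Lysate was treated 10 min at room temperature with Na-GTP (0, 0.001, 0.01, 0.1, 0.5 mM), heated to 12 temperatures (42-63.9 °C) for 3 min, and soluble protein was quantified by TMT10 LC-MS/MS. pEC50 is the median over replicates of dose-response fits (FDR-controlled hits).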

adenosine triphosphate = compound: Nc1ncnc2c1ncn2[C@@H]1O[C@H](COP(=O)(O)OP(=O)(O)OP(=O)(O)O)[C@@H](O)[C@H]1O [adenosine triphosphate]; assay: pEC50 of ATP-induced change in protein thermal stability (2D-TPP)
Outline: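 In three independent experiments, Jurkat crude lysate received five concentrations including vehicle for 10 min at room temperature before a 3 min heating step at 12 temperatures (42–63.9 °C). NP40 and benzonase were then added for 60 min at 4 °C, and soluble protein after ultracentrifugation was read out by TMT LC-MS/MS as median-normalised fold changes against vehicle at each temperature. Dose-response fits per replicate over adjacent temperature pairs yielded pEC50, with hits called by permutation-based false discovery rate control.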
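Throughout, for pEC50 of ATP-induced change in protein thermal stability (2D-TPP): lysate dosed with Na-ATP at 0 0.005 0.05 0.5 and 2 mM.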

UniProt Q9NR31, sequence (Q9NR31 whole entry): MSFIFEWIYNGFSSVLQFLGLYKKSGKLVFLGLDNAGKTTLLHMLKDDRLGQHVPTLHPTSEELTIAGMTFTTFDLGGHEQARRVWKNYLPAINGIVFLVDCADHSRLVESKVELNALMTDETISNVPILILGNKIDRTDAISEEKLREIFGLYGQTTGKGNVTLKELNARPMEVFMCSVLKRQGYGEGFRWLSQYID
UniProt Q9NYR9, sequence (Q9NYR9 whole entry): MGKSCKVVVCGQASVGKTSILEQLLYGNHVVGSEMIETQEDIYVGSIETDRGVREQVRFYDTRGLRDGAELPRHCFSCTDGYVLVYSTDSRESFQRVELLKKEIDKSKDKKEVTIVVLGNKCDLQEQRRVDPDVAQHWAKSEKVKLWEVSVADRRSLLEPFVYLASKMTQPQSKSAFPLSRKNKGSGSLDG
UniProt P35249, sequence (P35249 whole entry): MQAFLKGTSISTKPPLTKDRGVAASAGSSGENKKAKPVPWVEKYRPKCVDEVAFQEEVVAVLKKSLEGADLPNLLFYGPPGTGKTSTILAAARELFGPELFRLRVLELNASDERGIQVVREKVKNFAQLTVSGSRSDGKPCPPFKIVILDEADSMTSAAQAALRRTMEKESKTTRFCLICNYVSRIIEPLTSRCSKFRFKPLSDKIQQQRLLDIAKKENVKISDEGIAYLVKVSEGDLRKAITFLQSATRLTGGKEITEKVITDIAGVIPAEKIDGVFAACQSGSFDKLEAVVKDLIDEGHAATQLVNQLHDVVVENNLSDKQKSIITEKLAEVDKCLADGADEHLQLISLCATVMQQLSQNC
UniProt P06396, sequence (P06396 whole entry): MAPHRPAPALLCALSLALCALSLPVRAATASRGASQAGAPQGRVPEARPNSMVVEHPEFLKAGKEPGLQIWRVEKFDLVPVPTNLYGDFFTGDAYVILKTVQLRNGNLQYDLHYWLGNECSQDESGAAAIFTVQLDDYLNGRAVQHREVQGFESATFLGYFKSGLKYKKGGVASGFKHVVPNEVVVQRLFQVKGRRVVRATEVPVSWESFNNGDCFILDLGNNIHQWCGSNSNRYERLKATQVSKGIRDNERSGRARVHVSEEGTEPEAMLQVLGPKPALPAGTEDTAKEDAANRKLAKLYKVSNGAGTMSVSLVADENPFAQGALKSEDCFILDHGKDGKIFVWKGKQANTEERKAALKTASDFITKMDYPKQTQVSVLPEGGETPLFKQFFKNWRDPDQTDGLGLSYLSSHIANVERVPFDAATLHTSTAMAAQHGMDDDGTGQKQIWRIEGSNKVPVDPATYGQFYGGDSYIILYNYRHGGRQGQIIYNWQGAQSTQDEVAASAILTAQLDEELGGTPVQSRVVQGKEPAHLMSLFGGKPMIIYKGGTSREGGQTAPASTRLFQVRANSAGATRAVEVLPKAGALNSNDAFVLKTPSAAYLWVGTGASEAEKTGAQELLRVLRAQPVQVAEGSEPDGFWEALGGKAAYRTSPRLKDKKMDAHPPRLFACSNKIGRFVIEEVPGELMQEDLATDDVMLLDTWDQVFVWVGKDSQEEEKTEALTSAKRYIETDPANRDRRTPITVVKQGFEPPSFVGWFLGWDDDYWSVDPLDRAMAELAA
UniProt P20336, sequence (P20336 whole entry): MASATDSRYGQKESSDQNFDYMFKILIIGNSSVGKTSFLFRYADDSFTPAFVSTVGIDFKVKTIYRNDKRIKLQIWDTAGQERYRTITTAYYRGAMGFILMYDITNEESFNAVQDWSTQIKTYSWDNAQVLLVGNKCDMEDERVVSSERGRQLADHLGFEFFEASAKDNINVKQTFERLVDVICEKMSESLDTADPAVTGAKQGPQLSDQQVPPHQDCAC
UniProt Q9BY42, sequence (Q9BY42 whole entry): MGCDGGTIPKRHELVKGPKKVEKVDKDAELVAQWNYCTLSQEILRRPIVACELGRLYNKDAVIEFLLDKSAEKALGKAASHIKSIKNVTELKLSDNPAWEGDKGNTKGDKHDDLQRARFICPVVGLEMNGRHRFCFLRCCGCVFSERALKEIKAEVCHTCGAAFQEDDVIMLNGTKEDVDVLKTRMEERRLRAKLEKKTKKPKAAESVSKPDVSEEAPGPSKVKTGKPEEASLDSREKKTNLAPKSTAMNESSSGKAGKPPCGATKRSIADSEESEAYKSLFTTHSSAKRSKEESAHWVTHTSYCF
UniProt O60841, sequence (O60841 whole entry): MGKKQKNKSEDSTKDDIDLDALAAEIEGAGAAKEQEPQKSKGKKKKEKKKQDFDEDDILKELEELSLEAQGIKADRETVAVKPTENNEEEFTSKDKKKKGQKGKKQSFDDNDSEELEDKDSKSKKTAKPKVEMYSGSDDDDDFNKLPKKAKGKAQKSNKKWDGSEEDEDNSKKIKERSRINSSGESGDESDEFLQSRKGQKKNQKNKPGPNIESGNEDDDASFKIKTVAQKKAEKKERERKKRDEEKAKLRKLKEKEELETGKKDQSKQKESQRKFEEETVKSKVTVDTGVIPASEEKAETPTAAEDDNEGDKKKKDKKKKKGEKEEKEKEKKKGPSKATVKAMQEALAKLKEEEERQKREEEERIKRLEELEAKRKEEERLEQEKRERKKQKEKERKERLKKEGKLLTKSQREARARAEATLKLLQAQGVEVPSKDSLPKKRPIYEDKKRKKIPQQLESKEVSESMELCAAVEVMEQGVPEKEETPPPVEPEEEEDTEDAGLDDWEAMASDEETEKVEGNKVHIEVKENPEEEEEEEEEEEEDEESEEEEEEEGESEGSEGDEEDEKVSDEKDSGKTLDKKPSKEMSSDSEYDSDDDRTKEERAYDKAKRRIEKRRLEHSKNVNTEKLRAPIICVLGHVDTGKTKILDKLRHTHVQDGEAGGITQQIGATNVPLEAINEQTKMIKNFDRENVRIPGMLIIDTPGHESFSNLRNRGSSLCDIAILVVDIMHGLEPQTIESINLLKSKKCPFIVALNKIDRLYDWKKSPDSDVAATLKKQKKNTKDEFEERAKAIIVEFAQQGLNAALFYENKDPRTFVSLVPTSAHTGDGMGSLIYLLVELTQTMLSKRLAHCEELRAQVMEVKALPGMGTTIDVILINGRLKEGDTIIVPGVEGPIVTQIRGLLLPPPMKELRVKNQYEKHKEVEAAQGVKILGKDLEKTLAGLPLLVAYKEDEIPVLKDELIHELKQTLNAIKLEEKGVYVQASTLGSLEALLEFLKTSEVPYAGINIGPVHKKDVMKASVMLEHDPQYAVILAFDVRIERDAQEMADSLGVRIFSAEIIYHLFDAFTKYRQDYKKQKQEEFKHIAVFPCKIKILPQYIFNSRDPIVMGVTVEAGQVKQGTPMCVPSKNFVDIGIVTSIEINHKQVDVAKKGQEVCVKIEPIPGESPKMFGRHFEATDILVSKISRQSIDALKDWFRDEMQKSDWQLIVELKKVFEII
UniProt Q14318, sequence (Q14318 whole entry): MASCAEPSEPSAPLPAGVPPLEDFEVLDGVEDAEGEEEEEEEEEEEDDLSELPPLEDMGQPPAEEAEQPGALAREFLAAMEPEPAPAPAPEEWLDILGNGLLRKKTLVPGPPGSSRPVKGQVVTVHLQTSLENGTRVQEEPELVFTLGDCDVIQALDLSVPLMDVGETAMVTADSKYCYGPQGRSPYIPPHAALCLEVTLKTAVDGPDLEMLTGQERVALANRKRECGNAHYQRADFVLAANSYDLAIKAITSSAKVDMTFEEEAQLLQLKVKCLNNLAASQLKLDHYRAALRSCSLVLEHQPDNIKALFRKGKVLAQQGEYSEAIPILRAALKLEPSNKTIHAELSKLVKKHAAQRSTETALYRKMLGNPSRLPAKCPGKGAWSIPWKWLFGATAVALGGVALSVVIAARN
UniProt Q9ULC3, sequence (Q9ULC3 whole entry): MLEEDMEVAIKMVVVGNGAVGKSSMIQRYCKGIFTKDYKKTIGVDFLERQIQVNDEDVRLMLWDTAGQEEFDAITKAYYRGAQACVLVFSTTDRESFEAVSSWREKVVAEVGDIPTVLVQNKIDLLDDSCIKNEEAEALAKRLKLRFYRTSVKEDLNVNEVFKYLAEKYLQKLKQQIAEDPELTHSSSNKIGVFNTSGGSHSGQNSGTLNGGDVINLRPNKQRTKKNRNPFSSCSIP
UniProt Q9UBT2, sequence (Q9UBT2 whole entry): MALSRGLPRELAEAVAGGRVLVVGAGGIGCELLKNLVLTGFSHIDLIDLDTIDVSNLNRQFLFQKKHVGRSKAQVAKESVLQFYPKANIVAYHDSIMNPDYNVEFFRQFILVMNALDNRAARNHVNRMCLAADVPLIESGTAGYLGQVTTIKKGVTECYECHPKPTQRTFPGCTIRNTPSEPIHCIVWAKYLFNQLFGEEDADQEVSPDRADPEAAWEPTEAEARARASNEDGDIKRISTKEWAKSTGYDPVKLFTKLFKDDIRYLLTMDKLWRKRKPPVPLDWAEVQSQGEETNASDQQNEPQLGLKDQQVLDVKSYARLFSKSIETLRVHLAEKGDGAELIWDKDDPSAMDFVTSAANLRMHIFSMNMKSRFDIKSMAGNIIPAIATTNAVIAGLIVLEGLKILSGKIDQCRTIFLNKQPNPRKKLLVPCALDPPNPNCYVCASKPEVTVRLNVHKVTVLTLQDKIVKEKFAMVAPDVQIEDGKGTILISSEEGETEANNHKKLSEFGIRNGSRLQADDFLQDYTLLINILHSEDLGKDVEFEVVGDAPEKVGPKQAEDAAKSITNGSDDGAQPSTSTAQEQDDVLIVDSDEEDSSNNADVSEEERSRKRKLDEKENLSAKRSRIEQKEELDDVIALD
UniProt Q9Y376, sequence (Q9Y376 whole entry): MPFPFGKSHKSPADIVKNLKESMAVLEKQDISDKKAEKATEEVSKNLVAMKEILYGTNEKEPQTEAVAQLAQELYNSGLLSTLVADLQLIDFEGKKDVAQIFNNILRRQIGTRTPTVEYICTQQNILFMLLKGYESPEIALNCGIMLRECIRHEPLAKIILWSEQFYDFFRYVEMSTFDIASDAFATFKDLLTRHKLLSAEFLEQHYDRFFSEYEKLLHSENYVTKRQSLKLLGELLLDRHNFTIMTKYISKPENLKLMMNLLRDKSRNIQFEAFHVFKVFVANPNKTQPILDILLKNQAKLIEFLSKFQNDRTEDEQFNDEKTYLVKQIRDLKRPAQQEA

Target	pEC50 (guanosine triphosphate)	pEC50 (adenosine triphosphate)
UniProt P62805 (effect direction: stabilized)	3.69	–
RSRC2 (effect direction: stabilized) (UniProt Q7L4I2)	3.79	–
GPN1 (effect direction: stabilized) (UniProt Q9HCN4)	4.95	–
SAR1B (effect direction: stabilized) (UniProt Q9Y6B6)	4.16	–
SAR1A (effect direction: stabilized) (UniProt Q9NR31)	3.87	–
RAB12 (effect direction: stabilized) (UniProt Q6IQ22)	3.93	–
MMAA (effect direction: stabilized) (UniProt Q8IVH4)	4.08	–
UniProt Q9Y3L5 (effect direction: stabilized)	3.83	–
UniProt P62330 (effect direction: stabilized)	3.98	–
DHX37 (effect direction: stabilized) (UniProt Q8IY37)	3.8	–
TUBA1A (effect direction: stabilized) (UniProt Q71U36)	3.4	–
DOCK2 (effect direction: stabilized) (UniProt Q92608)	3.81	–
ARL1 (effect direction: stabilized) (UniProt P40616)	3.92	–
NKIRAS2 (effect direction: stabilized) (UniProt Q9NYR9)	4.17	–
HSPD1 (effect direction: destabilized) (UniProt P10809)	4.2	–
RAB23 (effect direction: stabilized) (UniProt Q9ULC3)	4.02	–
DNM2 (effect direction: stabilized) (UniProt P50570)	3.78	–
RAB3A (effect direction: stabilized) (UniProt P20336)	4	–
UniProt P08134 (effect direction: stabilized)	4.43	–
EEFSEC (effect direction: stabilized) (UniProt P57772)	3.92	–
FAM49B (effect direction: stabilized) (UniProt Q9NUQ9)	–	2.78
RPL34 (effect direction: destabilized) (UniProt P49207)	–	4.92
SLBP (effect direction: stabilized) (UniProt Q14493)	–	3.47
UBA2 (effect direction: stabilized) (UniProt Q9UBT2)	–	< 2.7
LAGE3 (effect direction: stabilized) (UniProt Q14657)	–	3.86

Target	pEC50 (guanosine triphosphate)	pEC50 (adenosine triphosphate)
UniProt Q16181 (effect direction: stabilized)	–	< 2.7
AMPD3 (effect direction: stabilized) (UniProt Q01432)	–	2.95
UniProt Q15208 (effect direction: stabilized)	–	3.24
ENO1 (effect direction: destabilized) (UniProt P06733)	–	< 2.7
NMT1 (effect direction: stabilized) (UniProt P30419)	–	3.06
RPL10 (effect direction: destabilized) (UniProt P27635)	–	3.88
NAGK (effect direction: stabilized) (UniProt Q9UJ70)	–	3.15
MRPL2 (effect direction: destabilized) (UniProt Q5T653)	–	3.46
UniProt Q08623 (effect direction: destabilized)	–	< 2.7
PDCD6 (effect direction: destabilized) (UniProt O75340)	–	< 2.7
GSN (effect direction: stabilized) (UniProt P06396)	–	2.94
UniProt O00487 (effect direction: stabilized)	–	4.28
KIF3B (effect direction: stabilized) (UniProt O15066)	–	4.07
TUT1 (effect direction: stabilized) (UniProt Q9H6E5)	–	2.93
CAPNS1 (effect direction: stabilized) (UniProt P04632)	–	2.86
ARG2 (effect direction: destabilized) (UniProt P78540)	–	3.17
CCT6A (effect direction: stabilized) (UniProt P40227)	–	4.38
GPKOW (effect direction: stabilized) (UniProt Q92917)	–	3.19
PGP (effect direction: destabilized) (UniProt A6NDG6)	–	< 2.7
UniProt P84098 (effect direction: destabilized)	–	2.89
SAE1 (effect direction: stabilized) (UniProt Q9UBE0)	–	< 2.7
UniProt Q9UKZ1 (effect direction: stabilized)	–	3.4
COPB2 (effect direction: stabilized) (UniProt P35606)	–	< 2.7
CAB39 (effect direction: stabilized) (UniProt Q9Y376)	–	3.15
PPM1G (effect direction: stabilized) (UniProt O15355)	–	< 2.7

Results, then the target that gave them:

pEC50 (guanosine triphosphate)	pEC50 (adenosine triphosphate)	Target
3.79	–	UniProt O95747 (effect direction: stabilized)
3.62	–	DNM1 (effect direction: stabilized) (UniProt Q05193)
3.81	–	EIF5B (effect direction: stabilized) (UniProt O60841)
3.92	–	RAB27A (effect direction: stabilized) (UniProt P51159)
4.41	–	TUFM (effect direction: stabilized) (UniProt P49411)
3.84	–	UniProt P63000 (effect direction: stabilized)
4.57	–	ARF4 (effect direction: stabilized) (UniProt P18085)
4.09	–	UniProt Q86Y56 (effect direction: stabilized)
4.18	–	UniProt P61221 (effect direction: stabilized)
3.86	–	UniProt O00506 (effect direction: stabilized)
3.82	–	SACS (effect direction: stabilized) (UniProt Q9NZJ4)
4.22	–	ATAD3A (effect direction: stabilized) (UniProt Q9NVI7)
3.88	–	ATL2 (effect direction: stabilized) (UniProt Q8NHH9)
3.91	–	RFC4 (effect direction: stabilized) (UniProt P35249)
3.34	–	SAFB2 (effect direction: destabilized) (UniProt Q14151)
4.39	–	RNGTT (effect direction: stabilized) (UniProt O60942)
–	< 2.7	GLO1 (effect direction: destabilized) (UniProt Q04760)
–	3.14	UniProt P62241 (effect direction: destabilized)
–	3.2	DDB2 (effect direction: stabilized) (UniProt Q92466)
–	3.36	FKBP8 (effect direction: stabilized) (UniProt Q14318)

pEC50 (guanosine triphosphate)	pEC50 (adenosine triphosphate)	Target
–	3.7	UniProt P23443 (effect direction: stabilized)
–	2.9	CDKAL1 (effect direction: destabilized) (UniProt Q5VV42)
–	< 2.7	WDR1 (effect direction: stabilized) (UniProt O75083)
–	3.22	ATP2B4 (effect direction: stabilized) (UniProt P23634)
–	< 2.7	Q5JWF2|P63092 (effect direction: stabilized) (UniProt P63092+Q5JWF2)
–	3.25	UniProt Q9BY42 (effect direction: destabilized)
–	3.04	MSN (effect direction: destabilized) (UniProt P26038)
–	< 2.7	RPN1 (effect direction: stabilized) (UniProt P04843)
–	4.18	UniProt P62195 (effect direction: stabilized)
–	3.42	DIS3L2 (effect direction: stabilized) (UniProt Q8IYB7)
–	< 2.7	NUDC (effect direction: stabilized) (UniProt Q9Y266)
–	2.85	WDR61 (effect direction: stabilized) (UniProt Q9GZS3)
–	3.49	CHKA (effect direction: stabilized) (UniProt P35790)
–	< 2.7	LARP1 (effect direction: stabilized) (UniProt Q6PKG0)
–	3.29	UniProt Q13131 (effect direction: stabilized)
–	< 2.7	EEF1D (effect direction: stabilized) (UniProt P29692)
–	2.86	DNAJC13 (effect direction: stabilized) (UniProt O75165)
–	3.37	SUB1 (effect direction: destabilized) (UniProt P53999)
–	4.16	UniProt O43314 (effect direction: stabilized)
